SMILES strings stand for the structures. Bounds are passed on as bounds.

In this assay the target is T1, N-terminally GST-tagged human full length recombinant Mps-1 kinase (Homo sapiens, UniProt P33981).
T1 construct: N-terminally GST-tagged human full length recombinant Mps-1 kinase; purchased Invitrogen, Karslruhe, Germany PV4071
T1 sequence (P33981 1-857): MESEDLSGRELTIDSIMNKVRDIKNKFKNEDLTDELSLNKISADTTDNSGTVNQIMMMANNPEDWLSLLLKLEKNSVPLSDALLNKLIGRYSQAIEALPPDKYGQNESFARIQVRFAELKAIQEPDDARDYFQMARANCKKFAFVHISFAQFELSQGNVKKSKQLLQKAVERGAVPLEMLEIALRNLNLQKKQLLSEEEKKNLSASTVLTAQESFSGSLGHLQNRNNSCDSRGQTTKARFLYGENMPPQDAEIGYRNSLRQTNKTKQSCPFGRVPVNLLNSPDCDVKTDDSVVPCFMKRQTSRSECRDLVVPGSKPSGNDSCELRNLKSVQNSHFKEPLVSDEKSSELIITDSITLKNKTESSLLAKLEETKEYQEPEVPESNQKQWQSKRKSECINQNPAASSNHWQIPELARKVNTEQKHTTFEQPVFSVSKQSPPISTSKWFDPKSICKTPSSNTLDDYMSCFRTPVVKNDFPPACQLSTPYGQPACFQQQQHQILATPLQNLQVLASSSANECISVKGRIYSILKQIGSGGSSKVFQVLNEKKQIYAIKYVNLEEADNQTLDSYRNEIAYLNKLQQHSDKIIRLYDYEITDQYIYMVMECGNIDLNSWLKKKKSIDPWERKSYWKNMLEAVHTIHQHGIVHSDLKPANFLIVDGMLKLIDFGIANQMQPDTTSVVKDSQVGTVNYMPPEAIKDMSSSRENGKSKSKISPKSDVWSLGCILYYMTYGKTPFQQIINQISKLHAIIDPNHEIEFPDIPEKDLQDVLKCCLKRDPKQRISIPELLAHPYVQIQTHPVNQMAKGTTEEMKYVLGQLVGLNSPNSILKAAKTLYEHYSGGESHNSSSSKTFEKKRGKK
As to the kind of experiment: Mps-1 kinase assay (TR-FRET). The class given is biochemical. Particulars: Mps1 IC50 [nM], 10 μM ATP, 1 μM peptide substrate, 60 min at 22° C. Summed up:
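GST-Mps-1 (full length, N-term tag) ~1 nM final, linear-range adjusted per lot; biotinylated peptide substrate. Detection: Eu-anti-pSer/Thr donor → SA-XLent acceptor TR-FRET, 1 h, 22° C. Inhibition of kinase activity.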
As usually defined, the IC50 is the concentration that gives 50% inhibition. As for `COc1cc(C(=O)NC2CC2)ccc1-c1cnc2c(NCC(C)(C)O)cc(-c3ccnn3C)nn12` [Example 50, N-cyclopropyl-4-{8-[(2-hydroxy-2-methylpropyl)amino]-6-(1-methyl-1H-pyrazol-5-yl)imidazo[1,2-b]pyridazin-3-yl}-3-methoxybenzamide], the IC50 turned out to be 84.8 nM.

Turning to `COc1cc(C(=O)NC2CC2)ccc1-c1cnc2c(NCCC(F)(F)F)cc(-c3ccc(F)cc3)nn12` [Example 52, N-cyclopropyl-4-{6-(4-fluorophenyl)-8-[(3,3,3-trifluoropropyl)amino]imidazo[1,2-b]pyridazin-3-yl}-3-methoxybenzamide], the IC50 was 3.2 nM. With `CC(C)CNc1cc(-c2cccc(C(=O)NC3CC3)c2)nn2c(-c3ccc(C(=O)NC4CC4)cc3)cnc12` [Example 135, N-cyclopropyl-3-{3-[4-(cyclopropylcarbamoyl)phenyl]-8-[(2-methylpropyl)amino]imidazo[1,2-b]pyridazin-6-yl}benzamide] the figure was less than 1 nM; with `Cc1cc(-c2cnc3c(NCCN(C)C)cc(Oc4cccc(F)c4)nn23)ccc1C(=O)NC1CC1` [Example 487, N-cyclopropyl-4-[8-{[2-(dimethylamino)ethyl]amino}-6-(3-fluorophenoxy)imidazo [1,2-b]pyridazin-3-yl]-2-methylbenzamide], 0.1 nM. Take `CCNC(=O)c1ccc(-c2cnc3c(NCCN4CCOCC4)cc(Oc4ccccc4)nn23)cc1C` [Example 593, N-ethyl-2-methyl-4-(8-{[2-(morpholin-4-yl)ethyl]amino}-6-phenoxyimidazo[1,2-b]pyridazin-3-yl)benzamide]: the IC50 stood at 9 nM. With `Cc1cc(-c2cnc3c(NCC4CCSCC4)cc(Oc4cccc(F)c4)nn23)ccc1C(=O)NC1CC1` [Example 281, N-cyclopropyl-4-{6-(3-fluorophenoxy)-8-[(tetrahydro-2H-thiopyran-4-ylmethyl)amino]imidazo[1,2-b]pyridazin-3-yl}-2-methylbenzamide] the figure was 0.3 nM; with `COc1ccc(Nc2cc(NCC(C)(C)O)c3ncc(-c4ccc(C(=O)NC5CC5)c(C)c4)n3n2)cc1` [Example 354, N-cyclopropyl-4-{8-[(2-hydroxy-2-methylpropyl)amino]-6-[(4-methoxyphenyl)amino]imidazo[1,2-b]pyridazin-3-yl}-2-methylbenzamide], 0.4 nM. For `Cc1cc(-c2cnc3c(NCCC(F)(F)F)cc(SCCN4CCOCC4)nn23)ccc1C(=O)NC1CC1` [Example 215, N-cyclopropyl-2-methyl-4-(6-{[2-(morpholin-4-yl)ethyl]sulfanyl}-8-[(3,3,3-trifluoropropyl)amino]imidazo[1,2-b]pyridazin-3-yl)benzamide], the IC50 stood at 1.7 nM. With `Cc1cc(-c2cnc3c(NCC(C)(C)O)cc(-c4ccc(F)cc4C)nn23)ccc1C(=O)NC1CC1` [Example 232, N-cyclopropyl-4-{6-(4-fluoro-2-methylphenyl)-8-[(2-hydroxy-2-methylpropyl)amino]imidazo[1,2-b]pyridazin-3-yl}-2-methylbenzamide] the figure was 1 nM.

With `Cc1cc(-c2cnc3c(NCCC#N)cc(Oc4cccc(F)c4)nn23)ccc1C(=O)NC1CC1` [Example 347, 4-{8-[(2-cyanoethyl)amino]-6-(3-fluorophenoxy)imidazo[1,2-b]pyridazin-3-yl}-N-cyclopropyl-2-methylbenzamide], the IC50 was 0.1 nM. The result for `Cc1cc(-c2cnc3c(NC[C@H]4CC[S@+]([O-])CC4)cc(Sc4cccc(F)c4)nn23)ccc1C(=O)NC1CC1` [Example 304B, N-cyclopropyl-4-(6-[(3-fluorophenyl)sulfanyl]-8-({[(trans)-1-oxidotetrahydro-2H-thiopyran-4-yl]methyl}amino)imidazo[1,2-b]pyridazin-3-yl)-2-methylbenzamide] reads 0.1 nM; that for `c1cc(-c2cc(NCC3CCCCO3)c3ncc(-c4ccc(-c5cnc(C6CC6)[nH]5)cc4)n3n2)ccn1` (racemic) [Example 29, (RS) 3-[4-(2-Cyclopropyl-1H-imidazol-5-yl)phenyl]-6-(pyridin-4-yl)-N-(tetrahydro-2H-pyran-2-ylmethyl)imidazo[1,2-b]pyridazin-8-amine], 80.2 nM; that for `Cc1cc(-c2cnc3c(NCCC(F)(F)F)cc(Sc4cccc(F)c4F)nn23)ccc1C(=O)NC1CC1` [Example 252, N-cyclopropyl-4-{6-[(2,3-difluorophenyl)sulfanyl]-8-[(3,3,3-trifluoropropyl)amino]imidazo[1,2-b]pyridazin-3-yl}-2-methylbenzamide], 0.2 nM. With `Cc1cc(-c2cnc3c(NCC(C)(C)O)cc(Nc4cccnc4)nn23)ccc1C(=O)NC1CC1` [Example 359, N-cyclopropyl-4-{8-[(2-hydroxy-2-methylpropyl)amino]-6-(pyridin-3-ylamino)imidazo[1,2-b]pyridazin-3-yl}-2-methylbenzamide] the figure was 1.2 nM.

As to `Cc1cc(-c2cnc3c(NCc4nnn[nH]4)cc(Oc4cccc(F)c4)nn23)ccc1C(=O)NC1CC1` [Example 496, N-cyclopropyl-4-{6-(3-fluoro-phenoxy)-8-[(1H-tetrazol-5-ylmethyl)amino]imidazo[1,2-b]pyridazin-3-yl}-2-methylbenzamide], the IC50 was 8.9 nM. With `CC(C)CNc1cc(-c2cnn(C)c2)nn2c(-c3ccc(C(=O)NC4CC4)cc3)cnc12` [Example 117, N-cyclopropyl-4-{8-[(2-methylpropyl)amino]-6-(1-methyl-1H-pyrazol-4-yl)imidazo[1,2-b]pyridazin-3-yl}benzamide] the figure was 3.3 nM. The result for `CNC(=O)c1ccc(-c2cnc3c(NCC4CCOCC4)cc(Oc4ccccc4C)nn23)cc1C` [Example 568, N,2-dimethyl-4-{6-(2-methylphenoxy)-8-[(tetrahydro-2H-pyran-4-ylmethyl)amino]imidazo[1,2-b]pyridazin-3-yl}benzamide] reads less than 1 nM.

As to `Cc1cc(-c2cnc3c(NCCC(F)(F)F)cc(Oc4cccc5c4CCN(C)C5)nn23)ccc1C(=O)NC1CC1` [Example 469, N-cyclopropyl-2-methyl-4-{6-[(2-methyl-1,2,3,4-tetrahydroisoquinolin-5-yl)oxy]-8-[(3,3,3-trifluoropropyl)amino]imidazo[1,2-b]pyridazin-3-yl}benzamide], the IC50 was 1.7 nM. The result for `Cc1cc(-c2cnc3c(NCC(C)(C)N)cc(-c4ccnn4C)nn23)ccc1C(=O)NC1CC1` [Example 58, 4-{8-[(2-Amino-2-methylpropyl)amino]-6-(1-methyl-1H-pyrazol-5-yl)imidazo[1,2-b]pyridazin-3-yl}-N-cyclopropyl-2-methylbenzamide] reads 20.5 nM. The result for `Cc1cc(-c2cnc3c(NCC(C)(C)O)cc(Oc4cccc(OCC(C)(C)O)c4)nn23)ccc1C(=O)NC1CC1` [Example 275, N-cyclopropyl-4-{6-[3-(2-hydroxy-2-methylpropoxy)phenoxy]-8-[(2-hydroxy-2-methylpropyl)amino]imidazo[1,2-b]pyridazin-3-yl}-2-methylbenzamide] reads 5.4 nM. With `Cc1ccc(Sc2cc(NCC(C)(C)O)c3ncc(-c4ccc(C(=O)NC5CC5)c(C)c4)n3n2)c(F)c1` [Example 360, N-cyclopropyl-4-{6-[(2-fluoro-4-methylphenyl)sulfanyl]-8-[(2-hydroxy-2-methylpropyl)amino]imidazo[1,2-b]pyridazin-3-yl}-2-methylbenzamide] the figure was 0.9 nM; with `Cc1cc(-c2cnc3c(NCC4CCSCC4)cc(Sc4ccccc4O)nn23)ccc1C(=O)NC1CC1` [Example 289, N-cyclopropyl-4-{6-[(2-hydroxyphenyl)sulfanyl]-8-[(tetrahydro-2H-thiopyran-4-ylmethyl)amino]imidazo[1,2-b]pyridazin-3-yl}-2-methylbenzamide], 0.2 nM; with `Cc1cc(-c2cnc3c(NCC(C)(C)N)cc(-c4ccccc4CO)nn23)ccc1C(=O)NC1CC1` [Example 59, 4-{8-[(2-Amino-2-methylpropyl)amino]-6-[2-(hydroxymethyl)phenyl]imidazo[1,2-b]pyridazin-3-yl}-N-cyclopropyl-2-methylbenzamide], 32.5 nM. `Cc1cc(Sc2cc(NCC(C)(C)O)c3ncc(-c4ccc(C(=O)NC5CC5)c(C)c4)n3n2)ccc1O` [Example 63, N-cyclopropyl-4-{6-[(4-hydroxy-3-methylphenyl)sulfanyl]-8-[(2-hydroxy-2-methylpropyl)amino]imidazo[1,2-b]pyridazin-3-yl}-2-methylbenzamide]: the IC50 was less than 0.1 nM.

The record behind these values is patent US9255100B2 (BAYER INTELLECTUAL PROPERTY GMBH, priority 2010, dated 2016).
